Results on 31 compounds are retold here after patent US10053463B2 (Janssen Pharmaceutica NV, priority 2013, dated 2018).

One experiment deals with P2X7 (Homo sapiens (Human), UniProt Q99572). The experiment can be described thus: P2X7 antagonism in human peripheral blood mononuclear cells (PBMCs), IL-1β release. The settings on record: P2X7; Table 3 (additional runs); 10 μM compound; read-out: PBMC 10 μM (% control). The experiment is classed as cell-based. In short, it runs like this: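 Ficoll-isolated human PBMCs primed with LPS (30 ng/ml) for 1 h, treated with compound for 30 min, then stimulated with 0.5 mM Bz-ATP for 1.5 h. Supernatant IL-1β measured by ELISA as % of LPS+Bz-ATP minus LPS-only release; IC50 from concentration–response of triplicate means.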
P2X7, sequence (Q99572 whole entry): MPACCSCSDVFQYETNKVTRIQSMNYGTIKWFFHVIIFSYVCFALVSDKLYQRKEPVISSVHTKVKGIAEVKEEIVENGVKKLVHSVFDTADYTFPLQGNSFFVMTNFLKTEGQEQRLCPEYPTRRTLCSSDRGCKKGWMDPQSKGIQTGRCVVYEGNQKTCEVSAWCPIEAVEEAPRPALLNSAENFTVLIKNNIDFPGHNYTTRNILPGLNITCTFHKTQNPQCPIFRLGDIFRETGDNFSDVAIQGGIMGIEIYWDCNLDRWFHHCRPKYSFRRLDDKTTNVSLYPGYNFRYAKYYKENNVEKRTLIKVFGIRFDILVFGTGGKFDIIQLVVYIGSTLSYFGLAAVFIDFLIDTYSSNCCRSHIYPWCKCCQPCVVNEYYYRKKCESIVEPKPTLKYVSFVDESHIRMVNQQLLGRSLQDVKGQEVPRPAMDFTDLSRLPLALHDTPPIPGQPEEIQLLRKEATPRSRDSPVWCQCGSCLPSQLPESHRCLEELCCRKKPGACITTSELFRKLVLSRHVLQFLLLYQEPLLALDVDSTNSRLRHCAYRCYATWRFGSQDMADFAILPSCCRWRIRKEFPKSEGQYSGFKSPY
On to `C[C@H]1Cn2c(nnc2-c2ccc(Cl)cn2)C(=O)N1Cc1cccc(C(F)(F)F)c1Cl` [Example 56, (6S)-3-(5-Chloropyridin-2-yl)-7-[2-chloro-3-(trifluoromethyl)benzyl]-6-methyl-6,7-dihydro[1,2,4]triazolo[4,3-a]pyrazin-8(5H)-one], for which the remaining activity at 10 µM is 11.2%.

`Cc1cncc(-c2nnc3n2C[C@H](C)N(Cc2cccc(C(F)(F)F)c2Cl)C3=O)c1` [Example 57, (6S)-7-[2-Chloro-3-(trifluoromethyl)benzyl]-6-methyl-3-(5-methylpyridin-3-yl)-6,7-dihydro[1,2,4]triazolo[4,3-a]pyrazin-8(5H)-one]: the remaining activity at 10 µM amounted to 0.1%.

For `C[C@H]1Cn2c(nnc2C2CCN(C(=O)OC(C)(C)C)C2)C(=O)N1Cc1cccc(C(F)(F)F)c1Cl` (stereo partly drawn) [Example 58, (6S)-tert-Butyl3-{7-[2-chloro-3-(trifluoromethyl)benzyl]-6-methyl-8-oxo-5,6,7,8-tetrahydro[1,2,4]triazolo[4,3-a]pyrazin-3-yl}pyrrolidine-1-carboxylate], the remaining activity at 10 µM turned out to be 24.6%.

For the compound `C[C@H]1Cn2c(nnc2C2CCCNC2)C(=O)N1Cc1cccc(C(F)(F)F)c1Cl` (stereo partly drawn) [Example 60, (6S)-7-[2-Chloro-3-(trifluoromethyl)benzyl]-6-methyl-3-piperidin-3-yl-6,7-dihydro[1,2,4]triazolo[4,3-a]pyrazin-8(5H)-one], the remaining activity at 10 µM turned out to be 17.1%.

Consider `CC[C@H]1Cn2c(nnc2-c2cnccn2)C(=O)N1Cc1cccc(C(F)(F)F)c1Cl` [Example 71, (6S)-7-[2-Chloro-3-(trifluoromethyl)benzyl]-6-ethyl-3-pyrazin-2-yl-6,7-dihydro[1,2,4]triazolo[4,3-a]pyrazin-8(5H)-one], for which the remaining activity at 10 µM turned out to be 1.2%.

Regarding `CC[C@H]1Cn2c(nnc2-c2ncccn2)C(=O)N1Cc1cccc(C(F)(F)F)c1Cl` [Example 72, (6S)-7-[2-Chloro-3-(trifluoromethyl)benzyl]-6-ethyl-3-pyrimidin-2-yl-6,7-dihydro[1,2,4]triazolo[4,3-a]pyrazin-8(5H)-one], the remaining activity at 10 µM came to 1.9%.

As to `CC[C@H]1Cn2c(nnc2-c2cccnc2)C(=O)N1Cc1cccc(C(F)(F)F)c1Cl` [Example 73, (6S)-7-[2-Chloro-3-(trifluoromethyl)benzyl]-6-ethyl-3-pyridin-3-yl-6,7-dihydro[1,2,4]triazolo[4,3-a]pyrazin-8(5H)-one], the remaining activity at 10 µM amounted to 6.2%.

With `CC[C@H]1Cn2c(nnc2-c2cc[nH]n2)C(=O)N1Cc1cccc(C(F)(F)F)c1Cl` [Example 74, (6S)-7-[2-Chloro-3-(trifluoromethyl)benzyl]-6-ethyl-3-(1H-pyrazol-3-yl)-6,7-dihydro[1,2,4]triazolo[4,3-a]pyrazin-8(5H)-one], the remaining activity at 10 µM came out at 0.3%.

For the compound `CC[C@H]1Cn2c(nnc2-c2ncc(F)cn2)C(=O)N1Cc1cccc(C(F)(F)F)c1Cl` [Example 75, (6S)-7-[2-Chloro-3-(trifluoromethyl)benzyl]-6-ethyl-3-(5-fluoropyrimidin-2-yl)-6,7-dihydro[1,2,4]triazolo[4,3-a]pyrazin-8(5H)-one], the remaining activity at 10 µM was found to be 22.6%.

Take `CC[C@H]1Cn2c(nnc2-c2ccc(F)cn2)C(=O)N1Cc1cccc(C(F)(F)F)c1Cl` [Example 76, (6S)-7-[2-Chloro-3-(trifluoromethyl)benzyl]-6-ethyl-3-(5-fluoropyridin-2-yl)-6,7-dihydro[1,2,4]triazolo[4,3-a]pyrazin-8(5H)-one]: the remaining activity at 10 µM was 16.9%.

Take `C[C@H]1Cn2c(nnc2-c2cnccn2)C(=O)N1` [Example 77, (6S)-6-Methyl-3-pyrazin-2-yl-6,7-dihydro[1,2,4]triazolo[4,3-a]pyrazin-8(5H)-one]: the remaining activity at 10 µM amounted to 105%.

Turning to `C[C@H]1Cn2c(nnc2-c2cnccn2)C(=O)N1Cc1ccc(F)cc1Cl` [Example 78, (6S)-7-(2-Chloro-4-fluorobenzyl)-6-methyl-3-pyrazin-2-yl-6,7-dihydro[1,2,4]triazolo[4,3-a]pyrazin-8(5H)-one], the remaining activity at 10 µM stood at 8.3%.

On to `C[C@H]1Cn2c(nnc2-c2cnccn2)C(=O)N1Cc1ccccc1` [Example 79, (6S)-7-Benzyl-6-methyl-3-pyrazin-2-yl-6,7-dihydro[1,2,4]triazolo[4,3-a]pyrazin-8(5H)-one], for which the remaining activity at 10 µM turned out to be 15.6%.

As to `C[C@H]1Cn2c(nnc2-c2cnccn2)C(=O)N1Cc1ccccc1Cl` [Example 80, (6S)-7-(2-Chlorobenzyl)-6-methyl-3-pyrazin-2-yl-6,7-dihydro[1,2,4]triazolo[4,3-a]pyrazin-8(5H)-one], the remaining activity at 10 µM was found to be 8.4%.

For `C[C@H]1Cn2c(nnc2-c2cnccn2)C(=O)N1Cc1ccc(S(C)(=O)=O)cc1Cl` [Example 81, (6S)-7-[2-Chloro-4-(methylsulfonyl)benzyl]-6-methyl-3-pyrazin-2-yl-6,7-dihydro[1,2,4]triazolo[4,3-a]pyrazin-8(5H)-one], the remaining activity at 10 µM is 170%.

Regarding `C[C@H]1Cn2c(nnc2-c2cnccn2)C(=O)N1Cc1ccc(Cl)cc1S(C)(=O)=O` [Example 82, (6S)-7-[4-Chloro-2-(methylsulfonyl)benzyl]-6-methyl-3-pyrazin-2-yl-6,7-dihydro[1,2,4]triazolo[4,3-a]pyrazin-8(5H)-one], the remaining activity at 10 µM was 22.2%.

On to `C[C@H]1Cn2c(nnc2-c2cnccn2)C(=O)N1Cc1ccccc1OC(F)(F)F` [Example 83, (6S)-6-Methyl-3-pyrazin-2-yl-7-[2-(trifluoromethoxy)benzyl]-6,7-dihydro[1,2,4]triazolo[4,3-a]pyrazin-8(5H)-one], for which the remaining activity at 10 µM was 15.6%.

On to `C[C@H]1Cn2c(nnc2-c2cnccn2)C(=O)N1Cc1cc2c(cc1Cl)OCO2` [Example 84, (6S)-7-[(6-Chloro-1,3-benzodioxol-5-yl)methyl]-6-methyl-3-pyrazin-2-yl-6,7-dihydro[1,2,4]triazolo[4,3-a]pyrazin-8(5H)-one], for which the remaining activity at 10 µM came to 25.9%.

As for `Cc1c(CN2C(=O)c3nnc(-c4cnccn4)n3C[C@@H]2C)cccc1C(F)(F)F` [Example 85, (6S)-6-Methyl-7-[2-methyl-3-(trifluoromethyl)benzyl]-3-pyrazin-2-yl-6,7-dihydro[1,2,4]triazolo[4,3-a]pyrazin-8(5H)-one], the remaining activity at 10 µM was determined as 16.6%.

Take `C[C@H]1Cn2c(nnc2-c2cnccn2)C(=O)N1Cc1c(Cl)cccc1Cl` [Example 86, (6S)-7-(2,6-Dichlorobenzyl)-6-methyl-3-pyrazin-2-yl-6,7-dihydro[1,2,4]triazolo[4,3-a]pyrazin-8(5H)-one]: the remaining activity at 10 µM came to 28.3%.

`Cc1cccc(C)c1CN1C(=O)c2nnc(-c3cnccn3)n2C[C@@H]1C` [Example 87, (6S)-7-(2,6-Dimethylbenzyl)-6-methyl-3-pyrazin-2-yl-6,7-dihydro[1,2,4]triazolo[4,3-a]pyrazin-8(5H)-one]: the remaining activity at 10 µM turned out to be 27%.

For `C[C@H]1Cn2c(nnc2-c2cnccn2)C(=O)N1Cc1cccc(C(F)(F)F)c1` [Example 88, (6S)-6-Methyl-3-pyrazin-2-yl-7-[3-(trifluoromethyl)benzyl]-6,7-dihydro[1,2,4]triazolo[4,3-a]pyrazin-8(5H)-one], the remaining activity at 10 µM was 29.9%.

Consider `C[C@H]1Cn2c(nnc2-c2cnccn2)C(=O)N1Cc1ccccc1[N+](=O)[O-]` [Example 89, (6S)-6-Methyl-7-(2-nitrobenzyl)-3-pyrazin-2-yl-6,7-dihydro[1,2,4]triazolo[4,3-a]pyrazin-8(5H)-one], for which the remaining activity at 10 µM is 30.7%.

Regarding `C[C@H]1Cn2c(nnc2-c2cnccn2)C(=O)N1Cc1cc([N+](=O)[O-])ccc1Cl` [Example 90, (6S)-7-(2-Chloro-5-nitrobenzyl)-6-methyl-3-pyrazin-2-yl-6,7-dihydro[1,2,4]triazolo[4,3-a]pyrazin-8(5H)-one], the remaining activity at 10 µM was determined as 24.4%.

For the compound `C[C@H]1Cn2c(nnc2-c2cnccn2)C(=O)N1Cc1cc(N)ccc1Cl` [Example 91, (6S)-7-(5-Amino-2-chlorobenzyl)-6-methyl-3-pyrazin-2-yl-6,7-dihydro[1,2,4]triazolo[4,3-a]pyrazin-8(5H)-one], the remaining activity at 10 µM was found to be 11.6%.

`CC(c1ccccc1)N1C(=O)c2nnc(-c3cnccn3)n2C[C@@H]1C` (stereo partly drawn) [Example 92, (6S)-6-Methyl-7-(1-phenylethyl)-3-pyrazin-2-yl-6,7-dihydro[1,2,4]triazolo[4,3-a]pyrazin-8(5H)-one]: the remaining activity at 10 µM is -1%.

Regarding `CC(c1cccc(C(F)(F)F)c1Cl)N1C(=O)c2nnc(-c3cnccn3)n2C[C@@H]1C` (stereo partly drawn) [Example 93], the remaining activity at 10 µM is 4.5%.

For `C[C@H]1Cn2c(-c3ccc(F)cn3)nnc2-c2nnc(-c3cccc(C(F)(F)F)c3Cl)n21` [Example 102, (5S)-3-[2-Chloro-3-(trifluoromethyl)phenyl]-8-(5-fluoropyridin-2-yl)-5-methyl-5,6-dihydrobis[1,2,4]triazolo[4,3-a:3′,4′-c]pyrazine], the remaining activity at 10 µM stood at 1.4%.

On to `C[C@H]1Cn2c(-c3cocn3)nnc2-c2nnc(-c3cccc(C(F)(F)F)c3Cl)n21` [Example 104, (5S)-3-[2-Chloro-3-(trifluoromethyl)phenyl]-5-methyl-8-(1,3-oxazol-4-yl)-5,6-dihydrobis[1,2,4]triazolo[4,3-a:3′,4′-c]pyrazine], for which the remaining activity at 10 µM was determined as 4.3%.

In the case of `C[C@H]1Cn2cnnc2-c2nnc(-c3cccc(C(F)(F)F)c3Cl)n21` [Example 107, (5S)-3-[2-Chloro-3-(trifluoromethyl)phenyl]-5-methyl-5,6-dihydrobis[1,2,4]triazolo[4,3-a:3′,4′-c]pyrazine], the remaining activity at 10 µM was found to be 40.2%.

Consider `C[C@H]1Cn2c(-c3cccnn3)nnc2-c2nnc(-c3cccc(C(F)(F)F)c3Cl)n21` [Example 108, (5S)-3-[2-Chloro-3-(trifluoromethyl)phenyl]-5-methyl-8-pyridazin-3-yl-5,6-dihydrobis[1,2,4]triazolo[4,3-a:3′,4′-c]pyrazine], for which the remaining activity at 10 µM was -0.5%.

The experiment is the same for the next values; noted with them: Table 2; 10 μM compound; IL-1β release, LPS + 0.5 mM Bz-ATP.
On to `CC[C@H]1Cn2c(nnc2-c2cnccn2)C(=O)N1Cc1cccc(C(F)(F)F)c1Cl` [Example 71, (6S)-7-[2-Chloro-3-(trifluoromethyl)benzyl]-6-ethyl-3-pyrazin-2-yl-6,7-dihydro[1,2,4]triazolo[4,3-a]pyrazin-8(5H)-one], for which the “PBMC 10 μM (% control)” value came out at 1.2 % control.

As to `CC(c1cccc(C(F)(F)F)c1Cl)N1C(=O)c2nnc(-c3cnccn3)n2C[C@@H]1C` (stereo partly drawn) [Example 93], the “PBMC 10 μM (% control)” value amounted to 4.5 % control.
